Several values for one entry are separate records, joined by “and”; a condition that tells them apart may be missing. Equal values may be shown once. Inconclusive results and toxic doses are left out. How the source made its calls: active means survival T/C of 150% or more; inactive means T/C below 125% in these data.
Tested on: BDF1 mice, P388 leukemia ip, median survival T/C
Assay: NCI In Vivo Anticancer Drug Screen. Data for tumor model P388 Leukemia (intraperitoneal) in B6D2F1 (BDF1) mice
Settings: endpoint: median survival time, higher = longer survival
Procedure, shortened: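 Read-out is survival of treated animals expressed relative to the vehicle group, as a T/C ratio.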

[1] = dose: 50.0 mg/kg/injection, schedule: Q04DX003 (ip), vehicle: saline
[2] = dose: 100.0 mg/kg/injection, schedule: Q04DX003 (ip), vehicle: saline
[3] = dose: 200.0 mg/kg/injection, schedule: Q04DX003 (ip), vehicle: saline

Measured: T/C

O=C(CC(=O)C(F)(F)F)c1csc2ccccc12
inactive: dose: 12.5 mg/kg/injection, schedule: Q01DX009 (ip), vehicle: saline with Tween-80 100 % of control | dose: 25.0 mg/kg/injection, schedule: Q01DX009 (ip), vehicle: gum acacia 112 % of control | dose: 25.0 mg/kg/injection, schedule: Q01DX009 (ip), vehicle: saline with Tween-80 112 % of control | dose: 25.0 mg/kg/injection, schedule: Q04DX003 (ip), vehicle: gum acacia 111 % of control | dose: 50.0 mg/kg/injection, schedule: Q01DX001 (ip), vehicle: Klucel (hydroxypropylcellulose) (HPC) 104 % of control | dose: 50.0 mg/kg/injection, schedule: Q01DX009 (ip), vehicle: gum acacia 120 % of control | dose: 50.0 mg/kg/injection, schedule: Q01DX009 (ip), vehicle: saline with Tween-80 91 % of control | dose: 50.0 mg/kg/injection, schedule: Q04DX003 (ip), vehicle: gum acacia 100 % of control | dose: 66.0 mg/kg/injection, schedule: Q01DX009 (ip), vehicle: gum acacia 107 % of control | dose: 66.0 mg/kg/injection, schedule: Q01DX009 (ip), vehicle: saline with Tween-80 120 % of control | dose: 75.0 mg/kg/injection, schedule: Q01DX009 (ip), vehicle: Klucel (hydroxypropylcellulose) (HPC) 115 % of control | dose: 100.0 mg/kg/injection, schedule: Q01DX001 (ip), vehicle: Klucel (hydroxypropylcellulose) (HPC) 113 % of control | dose: 100.0 mg/kg/injection, schedule: Q04DX003 (ip), vehicle: gum acacia 107 % of control and 111 % of control | dose: 115.0 mg/kg/injection, schedule: Q01DX009 (ip), vehicle: Klucel (hydroxypropylcellulose) (HPC) 120 % of control | dose: 150.0 mg/kg/injection, schedule: Q01DX009 (ip), vehicle: gum acacia 100 % of control | dose: 200.0 mg/kg/injection, schedule: Q01DX001 (ip), vehicle: Klucel (hydroxypropylcellulose) (HPC) 86 % of control

O=S(=O)(CS(=O)(=O)C(F)(F)C(F)(F)C(F)(F)C(F)(F)F)C(F)(F)C(F)(F)C(F)(F)C(F)(F)F
inactive: dose: 50.0 mg/kg/injection, schedule: Q01DX009 (ip), vehicle: saline 114 % of control | dose: 100.0 mg/kg/injection, schedule: Q01DX009 (ip), vehicle: saline 114 % of control | dose: 200.0 mg/kg/injection, schedule: Q01DX009 (ip), vehicle: saline 106 % of control

Cc1cc(=O)cc(C(=O)O)o1
inactive: dose: 25.0 mg/kg/injection, schedule: Q04DX003 (ip), vehicle: saline 113 % of control | [1] 100 % of control | [2] 90 % of control

O=C1CN(Cc2ccccc2)CC(=O)N2Cc3ccccc3CN12
inactive: dose: 100.0 mg/kg/injection, schedule: Q01DX005 (ip), vehicle: saline with Tween-80 101 % of control | dose: 200.0 mg/kg/injection, schedule: Q01DX005 (ip), vehicle: saline with Tween-80 92 % of control

CC1=CC(=O)NP(=O)(Oc2ccc3ccccc3c2)N1 (centres undefined)
inactive: dose: 25.0 mg/kg/injection, schedule: Q04DX003 (ip), vehicle: saline + alcohol 106 % of control | dose: 50.0 mg/kg/injection, schedule: Q04DX003 (ip), vehicle: saline + alcohol 98 % of control | dose: 100.0 mg/kg/injection, schedule: Q04DX003 (ip), vehicle: saline + alcohol 100 % of control | dose: 200.0 mg/kg/injection, schedule: Q04DX003 (ip), vehicle: saline + alcohol 94 % of control | dose: 400.0 mg/kg/injection, schedule: Q04DX003 (ip), vehicle: saline + alcohol 95 % of control

COc1ccccc1CN1CCCN(Cc2ccccc2OC)C1c1ccc(N(CCCl)CCCl)cc1C
inactive: dose: 65.0 mg/kg/injection, schedule: Q01DX009 (ip), vehicle: Klucel (hydroxypropylcellulose) (HPC) 95 % of control | dose: 100.0 mg/kg/injection, schedule: Q01DX009 (ip), vehicle: Klucel (hydroxypropylcellulose) (HPC) 109 % of control

O=C1N=C2C=CC=CN2CC1O (centres undefined)
inactive: dose: 100.0 mg/kg/injection, schedule: Q04DX003 (ip), vehicle: saline with Tween-80 104 % of control | dose: 200.0 mg/kg/injection, schedule: Q04DX003 (ip), vehicle: saline with Tween-80 112 % of control | dose: 400.0 mg/kg/injection, schedule: Q04DX003 (ip), vehicle: saline with Tween-80 100 % of control

C[C@]12C=CC(=O)C=C1CC[C@@H]1[C@@H]2C(=O)C[C@@]2(C)[C@H]1CC[C@]2(O)C(=O)CO
inactive: dose: 0.8 mg/kg/injection, schedule: Q01DX009 (ip), vehicle: carboxymethylcellulose (CMC) 90 % of control | dose: 1.6 mg/kg/injection, schedule: Q01DX009 (ip), vehicle: carboxymethylcellulose (CMC) 99 % of control | dose: 3.12 mg/kg/injection, schedule: Q01DX009 (ip), vehicle: carboxymethylcellulose (CMC) 99 % of control | dose: 6.25 mg/kg/injection, schedule: Q01DX009 (ip), vehicle: carboxymethylcellulose (CMC) 89 % of control and 103 % of control | dose: 6.25 mg/kg/injection, schedule: Q03HX008 (ip), vehicle: saline 107 % of control | dose: 6.25 mg/kg/injection, schedule: Q03HX016 (ip), vehicle: saline 100 % of control | dose: 6.25 mg/kg/injection, schedule: Q03HX024 (ip), vehicle: saline 100 % of control | dose: 12.5 mg/kg/injection, schedule: Q01DX009 (ip), vehicle: carboxymethylcellulose (CMC) 87 % of control and 89 % of control | dose: 12.5 mg/kg/injection, schedule: Q03HX008 (ip), vehicle: saline 100 % of control | dose: 12.5 mg/kg/injection, schedule: Q03HX016 (ip), vehicle: saline 100 % of control | dose: 12.5 mg/kg/injection, schedule: Q03HX024 (ip), vehicle: saline 87 % of control | dose: 25.0 mg/kg/injection, schedule: Q03HX008 (ip), vehicle: saline 100 % of control | dose: 25.0 mg/kg/injection, schedule: Q03HX016 (ip), vehicle: saline 100 % of control | dose: 25.0 mg/kg/injection, schedule: Q03HX024 (ip), vehicle: saline 87 % of control | dose: 44.0 mg/kg/injection, schedule: Q04DX003 (sc), vehicle: Klucel (hydroxypropylcellulose) (HPC) 113 % of control | dose: 50.0 mg/kg/injection, schedule: Q01DX001 (ip), vehicle: saline 107 % of control | dose: 50.0 mg/kg/injection, schedule: Q01DX009 (ip), vehicle: carboxymethylcellulose (CMC) 90 % of control and 93 % of control | dose: 50.0 mg/kg/injection, schedule: Q03HX008 (ip), vehicle: saline 100 % of control | dose: 50.0 mg/kg/injection, schedule: Q03HX016 (ip), vehicle: saline 107 % of control | dose: 50.0 mg/kg/injection, schedule: Q03HX024 (ip), vehicle: saline 87 % of control | [1] 93 % of control | dose: 50.0 mg/kg/injection, schedule: Q08DX002 (ip), vehicle: saline 87 % of control | dose: 67.0 mg/kg/injection, schedule: Q04DX003 (sc), vehicle: Klucel (hydroxypropylcellulose) (HPC) 114 % of control | dose: 100.0 mg/kg/injection, schedule: Q01DX001 (ip), vehicle: saline 114 % of control | dose: 100.0 mg/kg/injection, schedule: Q03HX008 (ip), vehicle: saline 100 % of control | dose: 100.0 mg/kg/injection, schedule: Q03HX016 (ip), vehicle: saline 114 % of control | dose: 100.0 mg/kg/injection, schedule: Q03HX024 (ip), vehicle: saline 87 % of control | [2] 106 % of control | dose: 100.0 mg/kg/injection, schedule: Q04DX003 (sc), vehicle: Klucel (hydroxypropylcellulose) (HPC) 113 % of control | dose: 100.0 mg/kg/injection, schedule: Q08DX002 (ip), vehicle: saline 87 % of control | dose: 200.0 mg/kg/injection, schedule: Q01DX001 (ip), vehicle: saline 114 % of control | [3] 100 % of control | dose: 200.0 mg/kg/injection, schedule: Q08DX002 (ip), vehicle: saline 100 % of control | dose: 400.0 mg/kg/injection, schedule: Q01DX001 (ip), vehicle: saline 121 % of control | dose: 400.0 mg/kg/injection, schedule: Q04DX003 (ip), vehicle: saline 106 % of control | dose: 400.0 mg/kg/injection, schedule: Q08DX002 (ip), vehicle: saline 87 % of control | dose: 800.0 mg/kg/injection, schedule: Q01DX001 (ip), vehicle: saline 121 % of control | dose: 800.0 mg/kg/injection, schedule: Q04DX003 (ip), vehicle: saline 106 % of control | dose: 800.0 mg/kg/injection, schedule: Q08DX002 (ip), vehicle: saline 100 % of control

O=CCSC(=S)NNc1ccccc1
inactive: dose: 75.0 mg/kg/injection, schedule: Q01DX001 (ip), vehicle: Klucel (hydroxypropylcellulose) (HPC) 110 % of control | dose: 150.0 mg/kg/injection, schedule: Q01DX001 (ip), vehicle: Klucel (hydroxypropylcellulose) (HPC) 105 % of control | dose: 300.0 mg/kg/injection, schedule: Q01DX001 (ip), vehicle: Klucel (hydroxypropylcellulose) (HPC) 95 % of control

OCCCN1CCC2(CC1)SSC1(CCN(CCCO)CC1)S2
inactive: [1] 95 % of control | [2] 100 % of control and 109 % of control | [3] 100 % of control and 104 % of control

Source: PubChem BioAssay AID328 (DTP/NCI, 2004)
